{"source": "patent US12077503B2", "about": "“Substituted cyclic amides and their use as herbicides” (FMC CORPORATION, priority 2015, dated 2024)", "type_in_all_cases": "in vivo", "key": {"[1]": {"test_system": "barnyardgrass (Echinochloa crus-galli)", "assay": "Test A postemergence", "settings": "Echinochloa crus-galli, post-emergence, 240 h, postemergence, read-out: Barnyardgrass plant response rating", "method_in_brief": "(§1)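 Preemergence directed soil spray on seeded pots, or postemergence application to plants 2–10 cm, one- to two-leaf. Solvent mixture non-phytotoxic, with surfactant. Scored ~10 d later, visually, 0–100 vs untreated.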"}, "[2]": {"test_system": "pigweed (Amaranthus retroflexus)", "assay": "Test A postemergence", "settings": "Amaranthus retroflexus, post-emergence, 240 h, postemergence", "method_in_brief": "as §1"}, "[3]": {"test_system": "ryegrass, Italian (Italian ryegrass, Lolium multiflorum)", "assay": "Test A postemergence", "settings": "Lolium multiflorum, post-emergence, 240 h, postemergence", "method_in_brief": "as §1"}, "[4]": {"test_system": "ragweed (common ragweed, Ambrosia elatior)", "assay": "Test A postemergence", "settings": "Ambrosia artemisiifolia, post-emergence, 240 h, postemergence", "method_in_brief": "as §1"}, "corn (Zea mays)": {"test_system": "corn (Zea mays)", "assay": "Test A postemergence", "settings": "Zea mays, post-emergence, 240 h, postemergence, read-out: Corn plant response rating", "method_in_brief": "as §1"}, "Kochia (Kochia scoparia)": {"test_system": "Kochia (Kochia scoparia)", "assay": "Test A postemergence", "settings": "Bassia scoparia, post-emergence, 240 h, postemergence, read-out: Kochia plant response rating", "method_in_brief": "as §1"}, "[5]": {"test_system": "Galium (catchweed bedstraw, Galium aparine)", "assay": "Test A postemergence", "settings": "Galium, post-emergence, 240 h, postemergence, read-out: Galium plant response rating", "method_in_brief": "as §1"}, "[6]": {"test_system": "giant foxtail (Setaria faberii)", "assay": "Test A postemergence", "settings": "Setaria faberi, post-emergence, 240 h, postemergence, read-out: Foxtail, Giant plant response rating", "method_in_brief": "as §1"}, "[7]": {"test_system": "blackgrass (Alopecurus myosuroides)", "assay": "Test A postemergence", "settings": "Alopecurus myosuroides, post-emergence, 240 h, postemergence, read-out: Blackgrass plant response rating", "method_in_brief": "as §1"}, "[8]": {"test_system": "wheat (Triticum aestivum)", "assay": "Test A postemergence", "settings": "Triticum aestivum, post-emergence, 240 h, postemergence", "method_in_brief": "as §1"}, "[9]": {"test_system": "barnyardgrass (Echinochloa crus-galli)", "assay": "Test B flooded paddy test", "settings": "Echinochloa crus-galli, 250 g ai/ha, Flood; 0 to 100 scale where 0 is no effect and 100 is complete control; read-out: Barnyardgrass plant response rating", "method_in_brief": "(§2)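 2-leaf plants; pots flooded 3 cm over soil; cpd added to paddy water; depth held; greenhouse 13–15 d; visual rating vs controls, 0 = no effect, 100 = complete control.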"}, "rice (Oryra sativa)": {"test_system": "rice (Oryra sativa)", "assay": "Test B flooded paddy test", "settings": "Oryza sativa, 250 g ai/ha, Flood; 0 to 100 scale where 0 is no effect and 100 is complete control; read-out: Rice plant response rating", "method_in_brief": "as §2"}, "[10]": {"test_system": "ducksalad (Heteranthera limosa)", "assay": "Test B flooded paddy test", "settings": "Heteranthera limosa, 250 g ai/ha, Flood; 0 to 100 scale where 0 is no effect and 100 is complete control; read-out: Ducksalad plant response rating", "method_in_brief": "as §2"}, "[11]": {"test_system": "sedge, umbrella (small-flower umbrella sedge, Cyperus difformis)", "assay": "Test B flooded paddy test", "settings": "Cyperus difformis, 250 g ai/ha, Flood; 0 to 100 scale where 0 is no effect and 100 is complete control; read-out: Sedge, Umbrella plant response rating", "method_in_brief": "as §2"}, "[12]": {"test_system": "giant foxtail (Setaria faberii)", "assay": "Test A preemergence", "settings": "Setaria faberi, pre-emergence, 240 h, preemergence, 0 to 100 scale where 0 is no effect and 100 is complete control, read-out: Foxtail, Giant plant response rating", "method_in_brief": "as §1"}, "[13]": {"settings": "125 g ai/ha, visual injury on 0 to 100 scale (0 no effect, 100 complete control), approx. 10 d"}, "[14]": {"settings": "500 g ai/ha, 0 to 100 scale, 0 is no effect, 100 is complete control"}}, "data": [{"smiles": "CN1C[C@H](c2ccc(C(F)(F)F)cc2)[C@@](F)(C(=O)Nc2cccc(F)c2F)C1=O", "note": "(racemic) [Compound 1151]", "values": [{"measurement": "pest or weed control at 125 g/ha", "setting": "[1]; [13]", "result": 80, "unit": "%"}, {"measurement": "pest or weed control at 500 g/ha", "setting": "[1]; [14]", "result": 90, "unit": "%"}, {"measurement": "pest or weed control at 125 g/ha", "setting": "[2]; 125 g ai/ha, visual injury vs untreated controls after approx. 10 d, 0 = no effect, 100 = complete control, read-out: Pigweed plant response rating (0 to 100 scale)", "result": 20, "unit": "%"}, {"measurement": "pest or weed control at 500 g/ha", "setting": "[2]; 500 g ai/ha, 0 to 100 scale, 0 is no effect, 100 is complete control, read-out: Pigweed plant response rating", "result": 80, "unit": "%"}, {"measurement": "pest or weed control at 125 g/ha", "setting": "[3]; 125 g ai/ha, visual injury vs untreated controls after approx. 10 d, 0 = no effect, 100 = complete control, read-out: Ryegrass, Italian plant response rating (0 to 100 scale)", "result": 30, "unit": "%"}, {"measurement": "pest or weed control at 500 g/ha", "setting": "[3]; 500 g ai/ha, 0 to 100 scale, 0 is no effect, 100 is complete control, read-out: Ryegrass, Italian plant response rating", "result": 50, "unit": "%"}, {"measurement": "pest or weed control at 125 g/ha", "setting": "[4]; 125 g ai/ha, visual injury vs untreated controls after approx. 10 d, 0 = no effect, 100 = complete control, read-out: Ragweed plant response rating (0 to 100 scale)", "result": 0, "unit": "%"}, {"measurement": "pest or weed control at 500 g/ha", "setting": "[4]; 500 g ai/ha, 0 to 100 scale, 0 is no effect, 100 is complete control, read-out: Ragweed plant response rating", "result": 30, "unit": "%"}, {"measurement": "plant injury at 125 g/ha", "setting": "corn (Zea mays); [13]", "result": 60, "unit": "%"}, {"measurement": "plant injury at 500 g/ha", "setting": "corn (Zea mays); [14]", "result": 80, "unit": "%"}, {"measurement": "pest or weed control at 125 g/ha", "setting": "Kochia (Kochia scoparia); [13]", "result": 30, "unit": "%"}, {"measurement": "pest or weed control at 500 g/ha", "setting": "Kochia (Kochia scoparia); [14]", "result": 60, "unit": "%"}, {"measurement": "pest or weed control at 125 g/ha", "setting": "[5]; [13]", "result": 20, "unit": "%"}, {"measurement": "pest or weed control at 500 g/ha", "setting": "[5]; [14]", "result": 60, "unit": "%"}, {"measurement": "pest or weed control at 125 g/ha", "setting": "[6]; [13]", "result": 70, "unit": "%"}, {"measurement": "pest or weed control at 500 g/ha", "setting": "[6]; [14]", "result": 80, "unit": "%"}, {"measurement": "pest or weed control at 125 g/ha", "setting": "[7]; [13]", "result": 30, "unit": "%"}, {"measurement": "pest or weed control at 500 g/ha", "setting": "[7]; [14]", "result": 60, "unit": "%"}, {"measurement": "plant injury at 125 g/ha", "setting": "[8]; 125 g ai/ha, visual injury vs untreated controls after approx. 10 d, 0 = no effect, 100 = complete control, read-out: Wheat plant response rating (0 to 100 scale)", "result": 40, "unit": "%"}, {"measurement": "plant injury at 500 g/ha", "setting": "[8]; 500 g ai/ha, 0 to 100 scale, 0 is no effect, 100 is complete control, read-out: Wheat plant response rating", "result": 60, "unit": "%"}, {"measurement": "pest or weed control at 250 g/ha", "setting": "[9]", "result": 0, "unit": "%"}, {"measurement": "pest or weed control at 250 g/ha", "setting": "rice (Oryra sativa)", "result": 0, "unit": "%"}, {"measurement": "pest or weed control at 250 g/ha", "setting": "[10]", "result": 0, "unit": "%"}, {"measurement": "pest or weed control at 250 g/ha", "setting": "[11]", "result": 0, "unit": "%"}, {"measurement": "pest or weed control at 125 g/ha", "setting": "[12]; 125 g ai/ha, approx. 10 d", "result": 100, "unit": "%"}, {"measurement": "pest or weed control at 500 g/ha", "setting": "[12]; 500 g ai/ha", "result": 100, "unit": "%"}]}]}
